Laboratory results as given in patent US12414960B2, “Analogues of oleuropein and oleacein and uses thereof” (Attica Sciences Ltd., priority 2020, dated 2025).

Experiments:
[1] = ABTS radical cation scavenging assay; type: biochemical; conditions: NS = not statistically significant
Source text: The method of estimating antioxidant capacity, based on the ability to interact with the ABTS.+ radical cation was first performed by Miller et al. in 1993 (Miller, Nicholas et al., Clinical Science, 1993, 84: 407-412, “A novel method for measuring the antioxidant capacity and its application to monitoring the antioxidant status in premature neonates”). The mechanism of interaction of the antioxidant agents to be examined with the ABTS.+ radical is similar to that of the DPPH. radical, which can be inactivated either by the addition of an electron or by the addition of a hydrogen atom. However, unlike the DPPH. radical, which is a stable radical from the beginning, the ABTS.+ radical must be produced by the oxidation of ABTS. Thus, in order to estimate the antioxidant capacity of a substance, the formation of the ABTS.+ radical must first precede and the addition of the substance to be examined must follow. The addition of the antioxidant agent is performed after the production of the root ABTS.+ to avoid the interaction of the antioxidant agents with the oxidizing agents used for the oxidation of ABTS.
The oxidation of ABTS takes place either through chemical reactions with various reagents or through the action of enzymes such as peroxidases. The ABTS.+ radical from the moment it is formed is stable, has a green color and absorbs at 730 nm. When a substance with antioxidant activity is added to the solution, then the ABTS.+ radical is reduced by the addition of a hydrogen (or electron) atom, resulting in reduced visual absorption.
To assess the antioxidant capacity of the samples, the oxidation of ABTS was performed enzymatically through the action of horseradish peroxidase (HRP), in the presence of H2O2 (FIG. 3)
The anti-oxidant capacity of the GS compounds was evaluated by performing the ABTS assay as previously described (Kouka, Paraskevi et al., Oxid Med Cell Longev. 2019, Article ID 1870965). Briefly, in a total reaction volume of 1 mL in distilled water (dH2O), ABTS.^+ (1 mM), H2O2 (30 μM), and horseradish peroxidase (HRP) (6 μM) in 50 mM phosphate-buffered saline were added. The solution was incubated for 45 min at room temperature (RT) in the dark. Finally, 10 μL of the tested GS compound at various concentrations was added, and the absorbance was monitored on a Hitachi U-1900 radio beam spectrophotometer (serial no. 2023-029; Hitachi Ltd.) at 730 nm. In each experiment, a blank without the HRP was used, while the ABTS.^+ radical solution without the extract was used as the control. The RSC percentage of the tested extracts was calculated using the following equation: RSC (%)=[(ODcontrol−ODcompound)/ODcontrol]×100, where ODcontrol and OD sample are the optical density (OD) values of the control and the test sample, respectively.

[2] = Ferric reducing antioxidant power (FRAP) assay; type: biochemical; conditions: NS = not statistically significant
Source text: Reducing power is associated with antioxidant activity and may serve as a significant reflection of the antioxidant activity. Compounds with reducing power indicate that they are electron donors and can reduce the oxidized intermediates of lipid peroxidation processes, so that they can act as primary and secondary antioxidants.
In this assay, the yellow color of the test solution changes to various shades of green and blue depending on the reducing power of each compound. Presence of reducers causes the conversion of the Fe3+/ferricyanide complex used in this method to the ferrous form which when it reacts with iron chloride it gives a complex which absorbs at 700 nm. The higher the absorption at 700 nm, the greater the reducing capacity (FIG. 6).
The ferric reducing antioxidant capacity of the GS compounds was investigated by using the potassium ferricyanide-ferric chloride method (Tundis, Rosa et al. LWT—Food Science and Technology, 2013, 53: 370-377). Briefly, 0.2 mL of each of the GS compounds, 2.5 mL of phosphate buffer (0.2 M, pH 6.6), and 2.5 mL of potassium ferricyanide K3Fe(CN)6 (1%) were mixed and incubated at 50° C. for 20 min, to reduce ferricyanide into ferrocyanide. The reaction was stopped by adding 2.5 mL of 10% (w/v) trichloroacetic acid followed by centrifugation at 1000 rpm for 10 min. Finally, 2.5 mL of the upper layer was mixed with 2.5 mL of distilled water and 0.5 mL of FeCl3 (0.1%) and the absorbance was measured at 700 nm.

[3] = test system: HeLa cervical cancer cells; test: XTT cell growth assay, HeLa; type: cell-based, human; conditions: 24 h, NS = not statistically significant; for inhibition at 50 µM: Homo sapiens, HeLa, read-out: Effectiveness to suppress HeLa cell growth (cell growth inhibition)
In short: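 HeLa cells in DMEM were plated and incubated 24 h, then exposed 24 h to compound at 5, 10 or 50 μM in serum-free DMEM. After 4 h with XTT reagent, formazan absorbance was read at 450 nm (630 nm reference); serum-free medium served as negative control.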

Compound	ABTS Radical Cation Scavenging Assay IC50 [1] [μg extract/mL]	Ferric Reducing Power Antioxidant Assay RP0.5AU [2] [μg extract/mL]	inhibition at 50 µM [3] [%]	Effectiveness to suppress HeLa cell growth (cell growth inhibition) ([3]; 50 uM)
C/C=C(/C=O)[C@@H](CC=O)CC(=O)OCCc1ccc(O)cc1 [GS19, (3S,4E)-4-formyl-3-(2-oxoethyl)-4-hexenoic acid 2-(4-hydroxyphenyl)ethyl ester, reference compound]	38	133	79.1	
C/C=C(/C=O)[C@@H](CC=O)CC(=O)OCCOc1ccccc1 [GS24, (3S,4E)-4-formyl-3-(2-oxoethyl)-4-hexenoic acid 2-phenoxyethyl ester]			66.6	
C/C=C(/C=O)[C@@H](CC=O)CC(=O)SCCc1ccccc1 [GS27, S-phenethyl (3S,4E)-4-formyl-3-(2-oxoethyl)hex-4-enethioate]			39	
C/C=C(/C=O)[C@@H](CC=O)CC(=O)OCCCSC [GS28, (3S,4E)-4-formyl-3-(2-oxoethyl)-4-hexenoic acid 3-(methylthio)propyl ester]			81	best efficacy

Continued, in another order:

ABTS Radical Cation Scavenging Assay IC50 [1] [μg extract/mL]	Compound	Ferric Reducing Power Antioxidant Assay RP0.5AU [2] [μg extract/mL]	inhibition at 50 µM [3] [%]	Effectiveness to suppress HeLa cell growth (cell growth inhibition) ([3]; 50 uM)
8.2	C/C=C1/[C@H](OC2OC(CO)C(O)C(O)C2O)OC=C(C(=O)O)[C@H]1CC(=O)OCCc1ccc(O)c(O)c1 (stereo in doubt) [GS6, (2S,4S,E)-4-(2-(3,4-dihydroxyphenethoxy)-2-oxoethyl)-3-ethylidene-2{[(2R,3S,4R,5R,6S)-3,4,5-trihydroxy-6-(hydroxymethyl)tetrahydro-2H-pyran-2-yl]oxy}-3,4dihydro-2H-pyran-5-carboxylic acid]	36	48	
20.9	C/C=C1/[C@H](O[C@@H]2O[C@H](CO)[C@@H](O)[C@H](O)[C@H]2O)OC=C(C(=O)OC)[C@H]1CC(=O)OCCc1ccc(O)c(O)c1 [GS1, oleuropein]	35		
8	C/C=C(/C=O)[C@@H](CC=O)CC(=O)OCCc1ccc(O)c(O)c1 [GS17, (3S,4E)-4-formyl-3-(2-oxoethyl)-4-hexenoic acid 2-(3,4-dihydroxyphenyl)ethyl ester, reference compound]	4.48		
